According to PubChem BioAssay AID248 (DTP/NCI, 2004):
Values joined by “and” are separate entries in the source; they are usually repeats but may differ in a detail not shown here. Equal values may be shown once. Inconclusive results and toxic doses are left out.

System: L1210 leukemia ip in BDF1 mice, survival T/C
Experiment: NCI In Vivo Anticancer Drug Screen. Data for tumor model L1210 Leukemia (intraperitoneal) in B6D2F1 (BDF1) mice
Conditions: endpoint: mean survival time, higher = longer survival
Method in brief: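 Transplantable tumor model; survival measured in treated vs vehicle control mice. Value = treated/control.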

[1] = dose: 100.0 mg/kg/injection, schedule: Q01DX001 (ip), vehicle: Klucel (hydroxypropylcellulose) (HPC)
[2] = dose: 100.0 mg/kg/injection, schedule: Q01DX009 (ip), vehicle: Klucel (hydroxypropylcellulose) (HPC)
[3] = dose: 100.0 mg/kg/injection, schedule: Q04DX002 (ip), vehicle: Klucel (hydroxypropylcellulose) (HPC)
[4] = dose: 200.0 mg/kg/injection, schedule: Q01DX001 (ip), vehicle: Klucel (hydroxypropylcellulose) (HPC)
[5] = dose: 200.0 mg/kg/injection, schedule: Q01DX009 (ip), vehicle: Klucel (hydroxypropylcellulose) (HPC)
[6] = dose: 200.0 mg/kg/injection, schedule: Q04DX002 (ip), vehicle: Klucel (hydroxypropylcellulose) (HPC)
[7] = dose: 400.0 mg/kg/injection, schedule: Q01DX001 (ip), vehicle: Klucel (hydroxypropylcellulose) (HPC)
[8] = dose: 400.0 mg/kg/injection, schedule: Q01DX009 (ip), vehicle: Klucel (hydroxypropylcellulose) (HPC)
[9] = dose: 400.0 mg/kg/injection, schedule: Q04DX002 (ip), vehicle: Klucel (hydroxypropylcellulose) (HPC)
[10] = dose: 100.0 mg/kg/injection, schedule: Q04DX003 (ip), vehicle: Klucel (hydroxypropylcellulose) (HPC)
[11] = dose: 200.0 mg/kg/injection, schedule: Q04DX003 (ip), vehicle: Klucel (hydroxypropylcellulose) (HPC)
[12] = dose: 400.0 mg/kg/injection, schedule: Q04DX003 (ip), vehicle: Klucel (hydroxypropylcellulose) (HPC)
[13] = dose: 50.0 mg/kg/injection, schedule: Q01DX009 (ip), vehicle: Klucel (hydroxypropylcellulose) (HPC)
[14] = dose: 100.0 mg/kg/injection, schedule: Q01DX009 (ip), vehicle: other

Compound: CC(C)=NNC(=O)Nc1ccc(C)c(Cl)c1
- T/C (dose: 50.0 mg/kg/injection, schedule: Q01DX001 (ip), vehicle: Klucel (hydroxypropylcellulose) (HPC)): 90 % of control
- T/C [1]: 103 % of control and 90 % of control
- T/C [2]: 102 % of control
- T/C [3]: 101 % of control and 86 % of control
- T/C [4]: 92 % of control
- T/C [5]: 93 % of control
- T/C [6]: 98 % of control and 100 % of control
- T/C [7]: 87 % of control
- T/C [8]: 86 % of control
- T/C [9]: 95 % of control and 89 % of control

Compound: COc1cc(NC(=O)Nc2cc(Cl)ccc2C)c(OC)cc1Cl
- T/C [1]: 97 % of control
- T/C [2]: 94 % of control and 88 % of control
- T/C [3]: 104 % of control
- T/C [10]: 103 % of control
- T/C [4]: 103 % of control
- T/C [5]: 87 % of control and 90 % of control
- T/C [6]: 98 % of control
- T/C [11]: 101 % of control
- T/C [7]: 95 % of control
- T/C [8]: 88 % of control
- T/C [9]: 89 % of control
- T/C [12]: 92 % of control

Compound: CCO/C=C1\SC(=S)N(c2ccc(O)cc2)C1=O
- T/C (dose: 12.5 mg/kg/injection, schedule: Q01DX009 (ip), vehicle: Klucel (hydroxypropylcellulose) (HPC)): 103 % of control
- T/C (dose: 25.0 mg/kg/injection, schedule: Q01DX009 (ip), vehicle: Klucel (hydroxypropylcellulose) (HPC)): 101 % of control
- T/C [13]: 105 % of control
- T/C [2]: 103 % of control
- T/C [14]: 104 % of control
- T/C [10]: 98 % of control
- T/C (dose: 100.0 mg/kg/injection, schedule: Q04DX003 (ip), vehicle: saline sonified): 96 % of control
- T/C (dose: 200.0 mg/kg/injection, schedule: Q01DX009 (ip), vehicle: other): 108 % of control
- T/C [11]: 98 % of control
- T/C (dose: 200.0 mg/kg/injection, schedule: Q04DX003 (ip), vehicle: saline sonified): 97 % of control
- T/C [12]: 89 % of control
- T/C (dose: 400.0 mg/kg/injection, schedule: Q04DX003 (ip), vehicle: saline sonified): 99 % of control

Compound: CC(C)(C)NC(=O)NN(c1ccccc1)C1CCS(=O)(=O)C1 (configuration not stated)
- T/C (dose: 100.0 mg/kg/injection, schedule: Q04DX002 (ip), vehicle: saline): 108 % of control
- T/C (dose: 200.0 mg/kg/injection, schedule: Q04DX002 (ip), vehicle: saline): 97 % of control
- T/C (dose: 400.0 mg/kg/injection, schedule: Q04DX002 (ip), vehicle: saline): 97 % of control

Compound: O=C1c2cc(Cl)ccc2-c2c1cc(Cl)cc2[N+](=O)[O-]
- T/C [10]: 100 % of control
- T/C [11]: 104 % of control
- T/C [12]: 98 % of control

Compound: O=c1[nH]nc(SCc2ccccc2)c(=S)[nH]1
- T/C (dose: 100.0 mg/kg/injection, schedule: Q01DX001 (ip), vehicle: other): 119 % of control
- T/C (dose: 177.0 mg/kg/injection, schedule: Q01DX001 (ip), vehicle: other): 104 % of control
- T/C (dose: 200.0 mg/kg/injection, schedule: Q01DX001 (ip), vehicle: other): 156 % of control
- T/C (dose: 200.0 mg/kg/injection, schedule: Q01DX005 (ip), vehicle: other): 92 % of control
- T/C (dose: 266.0 mg/kg/injection, schedule: Q01DX001 (ip), vehicle: other): 101 % of control
- T/C (dose: 300.0 mg/kg/injection, schedule: Q01DX005 (ip), vehicle: other): 95 % of control

Compound: CCCCCCCCC(CCc1ccccc1)CCc1ccccc1
- T/C (dose: 100.0 mg/kg/injection, schedule: Q01DX001 (ip), vehicle: saline with Tween-80): 93 % of control
- T/C (dose: 200.0 mg/kg/injection, schedule: Q01DX001 (ip), vehicle: saline with Tween-80): 93 % of control
- T/C (dose: 400.0 mg/kg/injection, schedule: Q01DX001 (ip), vehicle: saline with Tween-80): 96 % of control

Compound: Cc1cccc(C)c1NC(=O)N(Cc1ccccc1)Cc1ccccc1
- T/C [2]: 98 % of control
- T/C [5]: 112 % of control
- T/C [8]: 110 % of control

Compound: O=[N+]([O-])c1cc(NS(=O)(=O)c2ccccc2)ccc1NS(=O)(=O)c1ccccc1
- T/C [13]: 90 % of control
- T/C [2]: 90 % of control
- T/C [10]: 111 % of control
- T/C [5]: 93 % of control
- T/C [11]: 97 % of control
- T/C [12]: 94 % of control

Compound: CC1=CC(=O)[C@@H](O)[C@]2(C)[C@H]3[C@@]4(O)OC[C@]35[C@H]([C@@H](C)[C@H]4O)[C@@H](OC(=O)c3ccccc3)C(=O)O[C@@H]5C[C@@H]12
- T/C (dose: 0.25 mg/kg/injection, schedule: Q01DX009 (ip), vehicle: saline with Tween-80): 102 % of control
- T/C (dose: 0.5 mg/kg/injection, schedule: Q01DX009 (ip), vehicle: saline with Tween-80): 103 % of control
- T/C (dose: 1.0 mg/kg/injection, schedule: Q01DX009 (ip), vehicle: saline with Tween-80): 103 % of control
- T/C (dose: 2.0 mg/kg/injection, schedule: Q01DX009 (ip), vehicle: saline with Tween-80): 108 % of control
- T/C (dose: 4.0 mg/kg/injection, schedule: Q01DX009 (ip), vehicle: saline with Tween-80): 111 % of control

Compound: COc1cc2c(c3oc4c(c(=O)c13)CCCC4)CCC(C)(C)O2
- T/C (dose: 100.0 mg/kg/injection, schedule: Q04DX003 (ip), vehicle: saline): 91 % of control
- T/C (dose: 200.0 mg/kg/injection, schedule: Q04DX003 (ip), vehicle: saline): 94 % of control
- T/C (dose: 400.0 mg/kg/injection, schedule: Q04DX003 (ip), vehicle: saline): 94 % of control

Compound: N/N=C(\N)N(Cc1ccccc1)c1ccccc1
- T/C (dose: 7.5 mg/kg/injection, schedule: Q01DX001 (ip), vehicle: saline): 94 % of control
- T/C (dose: 7.5 mg/kg/injection, schedule: Q01DX009 (ip), vehicle: saline): 96 % of control
- T/C (dose: 7.5 mg/kg/injection, schedule: Q04DX003 (ip), vehicle: saline): 97 % of control
- T/C (dose: 15.0 mg/kg/injection, schedule: Q01DX001 (ip), vehicle: saline): 92 % of control
- T/C (dose: 15.0 mg/kg/injection, schedule: Q01DX009 (ip), vehicle: saline): 94 % of control
- T/C (dose: 15.0 mg/kg/injection, schedule: Q04DX003 (ip), vehicle: saline): 95 % of control
- T/C (dose: 30.0 mg/kg/injection, schedule: Q01DX001 (ip), vehicle: saline): 100 % of control
- T/C (dose: 30.0 mg/kg/injection, schedule: Q01DX009 (ip), vehicle: saline): 102 % of control
- T/C (dose: 30.0 mg/kg/injection, schedule: Q04DX003 (ip), vehicle: saline): 97 % of control

Compound: COC(=O)c1cc(C)cc(Oc2ccccc2N)c1C
- T/C (dose: 100.0 mg/kg/injection, schedule: Q01DX001 (ip), vehicle: saline): 88 % of control
- T/C (dose: 200.0 mg/kg/injection, schedule: Q01DX001 (ip), vehicle: saline): 102 % of control
- T/C (dose: 400.0 mg/kg/injection, schedule: Q01DX001 (ip), vehicle: saline): 93 % of control

Compound: CC(=O)NC1CCC(CC2CCCCC2)CC1 (configuration not stated)
- T/C [2]: 101 % of control
- T/C [10]: 93 % of control and 102 % of control
- T/C [5]: 116 % of control
- T/C [11]: 103 % of control and 93 % of control
- T/C [12]: 114 % of control and 93 % of control

Compound: CN(C)C(=S)OCC(C)(C)C
- T/C (dose: 100.0 mg/kg/injection, schedule: Q04DX003 (ip), vehicle: saline with Tween-80): 113 % of control
- T/C (dose: 200.0 mg/kg/injection, schedule: Q04DX003 (ip), vehicle: saline with Tween-80): 100 % of control
- T/C (dose: 400.0 mg/kg/injection, schedule: Q04DX003 (ip), vehicle: saline with Tween-80): 97 % of control

Compound: COc1cccc(NC(=S)NC(Cc2ccccc2)c2ccccc2)c1 (configuration not stated)
- T/C [3]: 94 % of control
- T/C [6]: 101 % of control
- T/C [9]: 97 % of control

Compound: FC(F)(F)C(F)(F)c1nc2nc(Cl)c(Cl)nc2[nH]1
- T/C (dose: 50.0 mg/kg/injection, schedule: Q01DX009 (ip), vehicle: other): 106 % of control
- T/C [14]: 92 % of control
- T/C (dose: 100.0 mg/kg/injection, schedule: Q04DX003 (ip), vehicle: other): 120 % of control
- T/C (dose: 132.0 mg/kg/injection, schedule: Q04DX003 (ip), vehicle: other): 94 % of control
- T/C (dose: 200.0 mg/kg/injection, schedule: Q04DX003 (ip), vehicle: other): 114 % of control

Compound: OC(c1ccccc1)(c1ccc(-c2ccccc2)cc1)c1cccc2ccccc12 (configuration not stated)
- T/C (dose: 75.0 mg/kg/injection, schedule: Q01DX001 (ip), vehicle: saline): 92 % of control
- T/C (dose: 150.0 mg/kg/injection, schedule: Q01DX001 (ip), vehicle: saline): 92 % of control
- T/C (dose: 300.0 mg/kg/injection, schedule: Q01DX001 (ip), vehicle: saline): 91 % of control
